Source: patent publication US8802597B2, “Herbicidal pyrimidines” (E I du Pont de Nemours and Company, priority 2003, dated 2014)

Tests used:
Assay in all cases: Test C pre/postemergence
Assay type in all cases: in vivo
[1] = system: Surinam grass (Brachiaria decumbens); settings: for Plant response rating (scale of 0 to 100), Surinam Grass / Surinam Grass plant response rating: Postemergence; for Surinam Grass plant response rating: scale 0 to 100 (0 no effect, 100 complete control); for Plant response rating, Surinam Grass: Preemergence
Summary of the method: (§1)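 Percent control is a visual rating (0 none, 100 complete) taken against untreated plants after 12 to 14 days of greenhouse growth. Applications were made preemergence to seeded pots and postemergence to plants at the 1- to 4-leaf stage, in a non-phytotoxic surfactant-containing solvent.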

[2] = system: cocklebur (Xanthium strumarium); settings: for Plant response rating (scale of 0 to 100), Cocklebur / Cocklebur plant response rating: Postemergence; for Cocklebur plant response rating: scale 0 to 100 (0 no effect, 100 complete control); for Plant response rating, Cocklebur: Preemergence
Summary of the method: as §1

[3] = system: common (oilseed) sunflower (Helianthus annuus); settings: Preemergence
Summary of the method: as §1

[4] = system: crabgrass (Digitaria sanguinalis); settings: for Plant response rating (scale of 0 to 100), Crabgrass / Crabgrass plant response rating: Postemergence; for Crabgrass plant response rating: scale 0 to 100 (0 no effect, 100 complete control); for Plant response rating, Crabgrass: Preemergence
Summary of the method: as §1

[5] = system: giant foxtail (Setaria faberii); settings: for Plant response rating (scale of 0 to 100), Foxtail, Giant / Foxtail, Giant plant response rating: Postemergence; for Foxtail, Giant plant response rating: scale 0 to 100 (0 no effect, 100 complete control); for Plant response rating, Foxtail, Giant: Preemergence
Summary of the method: as §1

[6] = system: johnsongrass (Sorghum halepense); settings: for Johnsongrass plant response rating: Postemergence, scale 0 to 100 (0 no effect, 100 complete control); for Plant response rating, Johnsongrass: Preemergence
Summary of the method: as §1

kochia (Kochia scoparia) = settings: for Plant response rating (scale of 0 to 100), Kochia / Kochia plant response rating: Postemergence; for Kochia plant response rating: scale 0 to 100 (0 no effect, 100 complete control); for Plant response rating, Kochia: Preemergence
Summary of the method: as §1

[7] = system: morningglory (Ipomoea coccinea); settings: for Plant response rating (scale of 0 to 100), Morningglory / Morningglory plant response rating: Postemergence; for Morningglory plant response rating: scale 0 to 100 (0 no effect, 100 complete control); for Plant response rating, Morningglory: Preemergence
Summary of the method: as §1

[8] = system: pigweed (Amaranthus retroflexus); settings: for Plant response rating (scale of 0 to 100), Pigweed / Pigweed plant response rating: Postemergence; for Pigweed plant response rating: scale 0 to 100 (0 no effect, 100 complete control); for Plant response rating, Pigweed: Preemergence
Summary of the method: as §1

[9] = system: velvetleaf (Abutilon theophrasti); settings: for Plant response rating (scale of 0 to 100), Velvetleaf / Velvetleaf plant response rating: Postemergence; for Velvetleaf plant response rating: scale 0 to 100 (0 no effect, 100 complete control); for Plant response rating, Velvetleaf: Preemergence
Summary of the method: as §1

[10] = system: woolly cupgrass (Eriochloa villosa); settings: for Plant response rating (scale of 0 to 100), Cupgrass, Woolly / Cupgrass, Woolly plant response rating: Postemergence; for Cupgrass, Woolly plant response rating: scale 0 to 100 (0 no effect, 100 complete control); for Plant response rating, Cupgrass, Woolly: Preemergence
Summary of the method: as §1

[11] = system: yellow nutsedge (Cyperus esculentus); settings: for Plant response rating (scale of 0 to 100), Nutsedge, Yellow / Nutsedge, Yellow plant response rating: Postemergence; for Nutsedge, Yellow plant response rating: scale 0 to 100 (0 no effect, 100 complete control); for Plant response rating, Nutsedge, Yellow: Preemergence
Summary of the method: as §1

[12] = 16 g ai/ha, scale 0 to 100, 0 no effect, 100 complete control
[13] = 31 g ai/ha, scale 0 to 100, 0 no effect, 100 complete control
[14] = 62 g ai/ha, scale 0 to 100, 0 no effect, 100 complete control

## CCOC(=O)C(OC(C)=O)c1nc(C2CC2)nc(N)c1Br (centres unmarked) [Compound 47]
[1]; 16 g ai/ha
  Plant response rating (scale of 0 to 100), Surinam Grass: 0
[1]; 31 g ai/ha
  Plant response rating (scale of 0 to 100), Surinam Grass: 0
[1]; 62 g ai/ha
  Surinam Grass plant response rating: 0
[1]; 125 g ai/ha
  Surinam Grass plant response rating: 20
[1]; [12]
  Plant response rating, Surinam Grass: 0
[1]; [13]
  Plant response rating, Surinam Grass: 0
[1]; [14]
  Plant response rating, Surinam Grass: 0
[1]; 125 g ai/ha, scale 0 to 100
  Plant response rating, Surinam Grass: 0
[2]; 16 g ai/ha
  Plant response rating (scale of 0 to 100), Cocklebur: 35
[2]; 31 g ai/ha
  Plant response rating (scale of 0 to 100), Cocklebur: 45
[2]; 62 g ai/ha
  Cocklebur plant response rating: 60
[2]; 125 g ai/ha
  Cocklebur plant response rating: 65
[2]; [12]
  Plant response rating, Cocklebur: 0
[2]; [13]
  Plant response rating, Cocklebur: 0
[2]; [14]
  Plant response rating, Cocklebur: 70
[2]; 125 g ai/ha, scale 0 to 100
  Plant response rating, Cocklebur: 75
[3]; [12]
  Plant response rating, Sunflower: 0
[3]; [13]
  Plant response rating, Sunflower: 0
[3]; [14]
  Plant response rating, Sunflower: 20
[3]; 125 g ai/ha, scale 0 to 100
  Plant response rating, Sunflower: 100
[4]; 16 g ai/ha
  Plant response rating (scale of 0 to 100), Crabgrass: 0
[4]; 31 g ai/ha
  Plant response rating (scale of 0 to 100), Crabgrass: 0
[4]; 62 g ai/ha
  Crabgrass plant response rating: 0
[4]; 125 g ai/ha
  Crabgrass plant response rating: 20
[4]; [12]
  Plant response rating, Crabgrass: 20
[4]; [13]
  Plant response rating, Crabgrass: 100
[4]; [14]
  Plant response rating, Crabgrass: 100
[4]; 125 g ai/ha, scale 0 to 100
  Plant response rating, Crabgrass: 100
[5]; 16 g ai/ha
  Plant response rating (scale of 0 to 100), Foxtail, Giant: 0
[5]; 31 g ai/ha
  Plant response rating (scale of 0 to 100), Foxtail, Giant: 0
[5]; 62 g ai/ha
  Foxtail, Giant plant response rating: 0
[5]; 125 g ai/ha
  Foxtail, Giant plant response rating: 0
[5]; [12]
  Plant response rating, Foxtail, Giant: 0
[5]; [13]
  Plant response rating, Foxtail, Giant: 0
[5]; [14]
  Plant response rating, Foxtail, Giant: 0
[5]; 125 g ai/ha, scale 0 to 100
  Plant response rating, Foxtail, Giant: 20
[6]; 62 g ai/ha
  Johnsongrass plant response rating: 0
[6]; 125 g ai/ha
  Johnsongrass plant response rating: 0
[6]; [12]
  Plant response rating, Johnsongrass: 0
[6]; [13]
  Plant response rating, Johnsongrass: 0
[6]; [14]
  Plant response rating, Johnsongrass: 0
[6]; 125 g ai/ha, scale 0 to 100
  Plant response rating, Johnsongrass: 0
Kochia (Kochia scoparia); 16 g ai/ha
  Plant response rating (scale of 0 to 100), Kochia: 0
Kochia (Kochia scoparia); 31 g ai/ha
  Plant response rating (scale of 0 to 100), Kochia: 0
Kochia (Kochia scoparia); 62 g ai/ha
  Kochia plant response rating: 20
Kochia (Kochia scoparia); 125 g ai/ha
  Kochia plant response rating: 100
Kochia (Kochia scoparia); [12]
  Plant response rating, Kochia: 0
Kochia (Kochia scoparia); [14]
  Plant response rating, Kochia: 0
Kochia (Kochia scoparia); 125 g ai/ha, scale 0 to 100
  Plant response rating, Kochia: 100
[7]; 16 g ai/ha
  Plant response rating (scale of 0 to 100), Morningglory: 20
[7]; 31 g ai/ha
  Plant response rating (scale of 0 to 100), Morningglory: 35
[7]; 62 g ai/ha
  Morningglory plant response rating: 40
[7]; 125 g ai/ha
  Morningglory plant response rating: 65
[7]; [12]
  Plant response rating, Morningglory: 0
[7]; [13]
  Plant response rating, Morningglory: 0
[7]; [14]
  Plant response rating, Morningglory: 70
[7]; 125 g ai/ha, scale 0 to 100
  Plant response rating, Morningglory: 100
[8]; 16 g ai/ha
  Plant response rating (scale of 0 to 100), Pigweed: 0
[8]; 31 g ai/ha
  Plant response rating (scale of 0 to 100), Pigweed: 15
[8]; 62 g ai/ha
  Pigweed plant response rating: 45
[8]; 125 g ai/ha
  Pigweed plant response rating: 70
[8]; [12]
  Plant response rating, Pigweed: 0
[8]; [13]
  Plant response rating, Pigweed: 80
[8]; [14]
  Plant response rating, Pigweed: 85
[8]; 125 g ai/ha, scale 0 to 100
  Plant response rating, Pigweed: 85
[9]; 16 g ai/ha
  Plant response rating (scale of 0 to 100), Velvetleaf: 0
[9]; 31 g ai/ha
  Plant response rating (scale of 0 to 100), Velvetleaf: 0
[9]; 62 g ai/ha
  Velvetleaf plant response rating: 0
[9]; 125 g ai/ha
  Velvetleaf plant response rating: 0
[9]; [12]
  Plant response rating, Velvetleaf: 0
[9]; [13]
  Plant response rating, Velvetleaf: 20
[9]; [14]
  Plant response rating, Velvetleaf: 20
[9]; 125 g ai/ha, scale 0 to 100
  Plant response rating, Velvetleaf: 50
[10]; 16 g ai/ha
  Plant response rating (scale of 0 to 100), Cupgrass, Woolly: 0
[10]; 31 g ai/ha
  Plant response rating (scale of 0 to 100), Cupgrass, Woolly: 0
[10]; 62 g ai/ha
  Cupgrass, Woolly plant response rating: 0
[10]; 125 g ai/ha
  Cupgrass, Woolly plant response rating: 0
[10]; [12]
  Plant response rating, Cupgrass, Woolly: 0
[10]; [13]
  Plant response rating, Cupgrass, Woolly: 0
[10]; [14]
  Plant response rating, Cupgrass, Woolly: 0
[10]; 125 g ai/ha, scale 0 to 100
  Plant response rating, Cupgrass, Woolly: 0
[11]; 16 g ai/ha
  Plant response rating (scale of 0 to 100), Nutsedge, Yellow: 0
[11]; 31 g ai/ha
  Plant response rating (scale of 0 to 100), Nutsedge, Yellow: 0
[11]; 62 g ai/ha
  Nutsedge, Yellow plant response rating: 0
[11]; 125 g ai/ha
  Nutsedge, Yellow plant response rating: 0
[11]; [12]
  Plant response rating, Nutsedge, Yellow: 0
[11]; [13]
  Plant response rating, Nutsedge, Yellow: 0
[11]; [14]
  Plant response rating, Nutsedge, Yellow: 0
[11]; 125 g ai/ha, scale 0 to 100
  Plant response rating, Nutsedge, Yellow: 0
